Series [1] deals with T1, human CaSR (Homo sapiens, UniProt P41180).
T1 sequence (P41180 20-1078): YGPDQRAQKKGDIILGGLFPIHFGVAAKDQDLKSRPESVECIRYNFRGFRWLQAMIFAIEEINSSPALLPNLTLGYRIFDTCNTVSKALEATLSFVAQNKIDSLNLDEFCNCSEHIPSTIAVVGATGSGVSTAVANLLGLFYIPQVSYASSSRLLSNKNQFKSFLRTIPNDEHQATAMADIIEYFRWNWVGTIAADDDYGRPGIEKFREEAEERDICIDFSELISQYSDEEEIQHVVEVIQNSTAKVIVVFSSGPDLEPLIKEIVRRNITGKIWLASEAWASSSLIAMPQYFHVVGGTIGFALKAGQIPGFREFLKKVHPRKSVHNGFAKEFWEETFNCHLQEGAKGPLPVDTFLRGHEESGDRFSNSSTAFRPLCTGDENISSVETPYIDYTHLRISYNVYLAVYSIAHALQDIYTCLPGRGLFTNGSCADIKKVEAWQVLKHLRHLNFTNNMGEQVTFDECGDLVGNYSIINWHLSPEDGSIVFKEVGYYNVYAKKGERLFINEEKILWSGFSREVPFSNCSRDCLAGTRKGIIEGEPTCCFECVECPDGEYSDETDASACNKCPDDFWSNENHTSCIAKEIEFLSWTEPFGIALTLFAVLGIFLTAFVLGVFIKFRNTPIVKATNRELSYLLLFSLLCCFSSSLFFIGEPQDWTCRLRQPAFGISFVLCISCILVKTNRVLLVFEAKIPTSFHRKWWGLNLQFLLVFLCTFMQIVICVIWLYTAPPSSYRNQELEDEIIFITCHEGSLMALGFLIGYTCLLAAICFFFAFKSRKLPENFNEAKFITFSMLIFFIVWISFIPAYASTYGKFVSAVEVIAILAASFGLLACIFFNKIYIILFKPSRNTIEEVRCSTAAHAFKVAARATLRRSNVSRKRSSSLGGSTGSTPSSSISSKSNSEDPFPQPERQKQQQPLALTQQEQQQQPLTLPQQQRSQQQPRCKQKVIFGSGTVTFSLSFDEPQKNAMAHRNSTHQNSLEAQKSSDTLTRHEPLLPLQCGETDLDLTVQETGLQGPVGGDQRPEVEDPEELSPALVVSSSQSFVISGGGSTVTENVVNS
The series can be described thus: Functional whole cell assay (modulation of human CaSR), IP1 accumulation in CHO-K1 cells. In kind it is cell-based. The conditions noted are these: CHO-K1 cells stably expressing human CaSR, final Ca2+ 1.9 mM, IP1 readout; concentration producing 50% of maximum agonistic response. An excerpt: The assay investigates a compound's functional ability to act as a biological positive modulator on the human CaSR. Activation of the receptor expressed on CHO-K1 cells is detected through the G alpha q pathway, the activation of phospholipase C and the accumulation of intracellular inositol phosphate (IP) as described earlier [Sandrine Ferry, Bruno Chatel, Robert H. Dodd, Christine Lair, Danielle Gully, Jean-Pierre Maffrand, and Martial Ruat. Effects of Divalent Cations and of a Calcimimetic on Adrenocorticotropic Hormone Release in Pituitary Tumor Cells. Biochemical and biophysical research Communications 238, 866-873 (1997)]. The human CaSR is stably expressed on a CHO-K1 cell clone, stimulated with a basal level of calcium and challenged with the tested compound. The level of IP1 is determined using the IP-One Terbium htrf kit (Cisbio, France). CHO-K1 cells not transfected with the CaSR fail to elicit an IP1 response upon calcium and/or compound stimulation.
The ORF coding for the human CaSR (genebank: NM_000388) was acquired from Invitrogen Corp, USA and subsequently cloned into the mammalian expression vector pCDA3.1.
CHO-K1 cells were transfected using Lipofectamine according to manufacturer's protocol (400.000 cells/well were seeded in a 6-well plate and transfected after 24 hours using 2 μg DNA and 5 μl lipofectamine). After another 24 hours the cells were detached, seeded and subjected to 1 mg/ml of G-418. Following 7 days growth single clones were picked, the CaSR expression evaluated using the 5C10 antibody against CaSR, the clones with the highest expression were selected and tested for functional response. The preferred clone was cultured according to standard procedures described in ATCC (American Type Culture Collection) protocols for CHO-K1 with the addition of 500 μg/ml G-418.
On the assay day, cells were thawed, harvested and resuspended to 4*10^6 cells/ml in stimulation buffer (containing: Hepes 10 mM, MgCl2 0.5 mM, KCl 4.2 mM, NaCl 146 mM, glucose 5.5 mM, LiCl 50 mM, BSA 0.5% at pH 7.4). Ten μl cell solution was pipetted into wells of a white 384-well plate (Perkin Elmer Optiplate) containing 2 μl compound diluted in assay buffer (containing: Hepes 10 mM, MgCl2 0.5 mM, KCl 4.2 mM, NaCl 146 mM, glucose 5.5 mM, LiCl 50 mM, CaCl2 11.4 mM at pH 7.4), resulting in a final Ca^2+ concentration of 1.9 mM. After compound stimulation for 1 hour at 37° C. and 15 min at room temperature, 10 ul of IP-One assay detection reagent (prepared as described by the IP-One assay kit manufacturer) was added and the plate was incubated for another 1 hour at room temperature. Finally the plate was read using a Perkin Elmer EnVision, according to the protocol supplied by the IP-One assay kit manufacturer. The FRET ratio was calculated by dividing the 665 nm emission signal with that of the 615 nm.
The molar concentration of a compound that produces 50% of the maximum agonistic response (the […] value) is calculated according to the equation “General sigmoidal curve with Hill slope, a to d” (Equation 1). This model describes a sigmoidal curve with an adjustable baseline. The equation can be used to fit curves where response is either increasing or decreasing with respect to the independent variable, X. […]
y=(a−d)/(1+(x/c)̂b)+d Equation 1 x=concentration of tested compound […]
a=min response as compound concentration approaches 0 d=max response as concentration of tested compound is increasing […]
b=Hill coefficient or curve slope

Series [2] is described as follows: Clearance in human liver microsomes. In kind it is in vitro ADME. The conditions noted are these: hepatic extraction ratio; test compound 0.5 μM, microsomes 0.5 mg/mL, NADPH 1 mM, 37° C. As for the experimental part: Test compound concentration is 0.5 μM, microsome concentration is 0.5 mg/mL and NADPH concentration is 1 mM in the incubation. The described method is performed by the liquid handling system Tecan RSP and is based on a 96-well format.
Control incubations with test compound without NADPH and test compound without microsomes are conducted to investigate non-CYP mediated metabolism and stability in phosphate buffer at 37° C., respectively.
The human liver microsomal suspension in phosphate buffer is mixed with NADPH. The mixture is pre-heated (7 min) to 37° C. Test compound is added, and the mixture is incubated for 30 minutes. Incubations are run in duplicate. Samples are withdrawn at predetermined stop times and mixed with methanol containing internal standard (IS) to terminate all enzyme activity and precipitate proteins. A control without NADPH (to detect problems such as nonspecific protein binding, heat instability or non-CYP mediated metabolism) and a control without microsomes (for assessing compound stability in the absence of any active enzymes) are tested.
The percentage of organic solvent in the incubations is less than 1%. Careful inspections of reagents are performed prior to the start of any experiment to ensure all reagents are in solution.
The 96-well plates are centrifuged. Test compound depletion, using a compound specific LC/MS/MS method, is determined.
The logarithm of the peak area ratios of test compound to internal standard (IS) versus incubation time is plotted in a graph.
The rate constant (k) (min^−1) of test compound depletion is calculated from the linear part of the curve and the half-time (t1/2) in minutes can be calculated from the rate constant (Eq. 2).
Intrinsic clearance (CIint) (mL/min/mg protein) is calculated from: […]
where c is the microsomal protein concentration in mg/mL.
Conversion to apparent clearance (CIapp) (mL/min/kg) is done by Eq. 4:
CIapp=CIint×a×b/d (Eq. 4)
where a, b and d are the scaling factors for normalizing CIint to human body weight.
a: 45 (microsomal protein/liver weight (mg/g))
b: 1500 (liver weight (g))
Hepatic clearance (CIh) (mL/min/kg) based on the well-stirred model is described as followed:
CIh=(CIapp·Q)/(CIapp+Q) (Eq. 5)
where Q is the liver blood flow in mL/min/kg (20 in humans).
Dividing hepatic clearance with liver blood flow, the hepatic extraction ratio (%) can be calculated:
Apparent clearance below approximately 10 mL/min/kg human body weight (corresponding to extraction ratio of approx. 33%) is considered as low clearance (high metabolic stability). Apparent intrinsic clearance above approximately 60 mL/min/kg human body weight (corresponding to extraction ratio of approx. 75%) is considered as high clearance (low metabolic stability).
Background: Microsomes from liver hold many membrane-bound enzymes, among them those of drug oxidation.

Here are results for 1 compound from US20130261132A1, “CALCIUM-SENSING RECEPTOR-ACTIVE COMPOUNDS” (LEO PHARMA A/S, priority 2010, published 2013).

In the case of `C[C@@H](N[C@H]1CC[C@@H](c2ccc(OCC(=O)NC3CCNCC3)cc2)C1)c1cccc(Cl)c1` [Compound 102, 2-[4-[(1R,3S)-3-[[(1R)-1-(3-Chlorophenyl)ethyl]amino]-cyclopentyl]-phenoxy]-N-(4-piperidyl)-acetamide], the EC50 (commonly the concentration giving half of the maximal effect) in series [1] fell in the range of 200 to 1000 nM. Besides, the “Clearance (% Eh) in human liver microsomes” value in series [2] is recorded as “A (A: Eh < 33%)”.
